Patent US12344649B2, “Modulators of parathyroid hormone receptor (PTHR1)” (Flagship Pioneering Innovations VI, LLC, priority 2019, dated 2025)
Several values for one entry are separate records, joined by “and”; a condition that tells them apart may be missing. Identical values can stand only once. Where no end group is shown, it is not given here.

Assays:
Type in all cases: cell-based
[1] = biological target: T1, PTHR1 (Homo sapiens, UniProt Q03431); assay: β-arrestin2 recruitment BRET assay in transfected HEK293T cells; set-up: Flag (N); Life Technologies Corporation, CA (arrestin cDNA); host or cells: HEK293T (CRL-3216, ATCC); conditions: for β-arrestin2 assay activity compared to control peptide: FIG. 2, PTH 1-34 positive control; for β2-arrestin: relative to PTH [1-34], HEK293T cells, BRET; for −log10Slope: fitted curve slope; for −log10Slope / EC50: replicate plates
T1 sequence (Q03431 27-593): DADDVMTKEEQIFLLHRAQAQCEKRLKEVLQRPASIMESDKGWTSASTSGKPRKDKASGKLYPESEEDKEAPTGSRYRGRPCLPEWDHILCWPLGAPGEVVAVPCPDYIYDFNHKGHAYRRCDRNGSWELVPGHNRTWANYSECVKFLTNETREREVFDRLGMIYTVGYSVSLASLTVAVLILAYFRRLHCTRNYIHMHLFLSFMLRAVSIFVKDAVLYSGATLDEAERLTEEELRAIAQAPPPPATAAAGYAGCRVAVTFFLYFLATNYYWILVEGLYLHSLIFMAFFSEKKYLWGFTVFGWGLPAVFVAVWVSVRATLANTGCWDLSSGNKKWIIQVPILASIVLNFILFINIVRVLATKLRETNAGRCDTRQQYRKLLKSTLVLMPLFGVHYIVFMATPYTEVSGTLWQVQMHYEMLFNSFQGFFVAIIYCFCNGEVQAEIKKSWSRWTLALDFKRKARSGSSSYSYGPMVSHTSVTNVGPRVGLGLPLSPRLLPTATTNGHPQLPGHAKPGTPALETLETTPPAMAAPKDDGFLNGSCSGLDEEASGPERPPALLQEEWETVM
Description: (§1) 18-24 hours post transfection, the Luciferase substrate Coelenterazine (NanoLight Technologies, AZ) was added to cells, a baseline BRET measurement was taken after 5 minutes incubation, and then serial dilutions of peptides, diluted in PBS (with 0.5 mM MgCl2+0.1% BSA FAF), were added to cells, and BRET signal was measured every 2 minutes for 30 minutes on Hybrid Multi-Mode Reader (Synergy Neo2, BioTek, VT). Seventy-five peptides were tested in the β-arrestin recruitment assay.

[2] = biological target: T1, PTHR1; assay: β-arrestin1 recruitment BRET assay in transfected HEK293T cells; set-up: Flag (N); Life Technologies Corporation, CA (arrestin cDNA); host or cells: HEK293T (CRL-3216, ATCC); conditions: for −log10Slope: fitted curve slope; for −log10Slope / EC50: replicate plates
Description: as §1

[3] = biological target: T1, PTHR1; assay: cAMP accumulation assay (HTRF) in CHO-K1/Ga15/PTHR1 cells; set-up: host or cells: CHO-K1 (recombinant line CHO-K1/Ga15/PTHR1); conditions: for Emax: CHO-K1, cAMP assay, fitted dose-response maximum; for cAMP accumulation activity compared to control peptide: FIG. 3, PTH 1-34 positive control; for cAMP: relative to PTH [1-34], CHO-K1/Ga15/PTHR1 cells
Description: Cell suspension (5 μL) was seeded in 384-well plates at a density of 3,000 cells/well. Cells were treated with test samples (5 μL) or agonist (PTH 1-34) for 30 minutes at room temperature. cAMP-d2 working solution (5 μL) and anti-cAMP-Cryptate working solution (5 μL) were added to cells and incubated for 60 minutes at room temperature. The signal of the assay plate was read with PheraStar (BMG LABTECH, NC), an HTRF compatible reader.

[4] = β-arrestin2 recruitment, read-out: −log10EC50 (converted)
[5] = cAMP accumulation, fitted curve slope, replicate plates
[6] = cAMP accumulation, replicate plates, read-out: −log10EC50 (converted)
[7] = β-arrestin1 recruitment, read-out: −log10EC50 (converted)
[8] = cAMP assay, fitted dose-response curve, read-out: −log10EC50 (converted)
[9] = cAMP assay, fitted dose-response slope

Compound	cAMP accumulation activity compared to control peptide [3]	cAMP [3]	−log10Slope [3, 5]	EC50 [3, 6] [µM]	also measured
CC[C@H](C)[C@H](NC(=O)[C@H](CCC(=O)O)NC(=O)[C@H](CO)NC(=O)[C@@H](NC(=O)[C@@H](N)CO)C(C)C)C(=O)N[C@@H](CCC(N)=O)C(=O)N[C@@H](CC(C)C)C(=O)N[C@@H](CCSC)C(=O)N[C@@H](Cc1cnc[nH]1)C(=O)N[C@@H](CC(N)=O)C(=O)N[C@@H](CC(C)C)C(=O)NCC(=O)N[C@@H](CCCCN)C(=O)N[C@@H](Cc1cnc[nH]1)C(=O)N[C@@H](CC(C)C)C(=O)N[C@@H](CC(N)=O)C(=O)N[C@@H](CO)C(=O)N[C@@H](CCSC)C(=O)N[C@@H](CCC(=O)O)C(=O)N[C@@H](CCCN=C(N)N)C(=O)N[C@H](C(=O)N[C@@H](CCC(=O)O)C(=O)N[C@@H](Cc1c[nH]c2ccccc12)C(=O)N[C@@H](CC(C)C)C(=O)N[C@@H](CCCN=C(N)N)C(=O)N[C@@H](CCCCN)C(=O)N[C@@H](CCCCN)C(=O)N[C@@H](CC(C)C)C(=O)N[C@@H](CCC(N)=O)C(=O)N[C@@H](CC(=O)O)C(=O)N[C@H](C(=O)N[C@@H](Cc1cnc[nH]1)C(=O)N[C@@H](CC(N)=O)C(=O)N[C@@H](Cc1ccccc1)C(=O)O)C(C)C)C(C)C [Teriparatide, reference compound]	increased activity as compared to the control peptide	++			β-arrestin2 assay activity compared to control peptide [1]: increased activity as compared to control; β2-arrestin [1]: ++; −log10Slope ([1]; β-arrestin2 recruitment, listed as R1-101): −3.44 and −3.409 and −3.396; β1-arrestin ([2]; relative to PTH [1-34], HEK293T cells, BRET): +; −log10Slope ([2]; β-arrestin1 recruitment, listed as R1-101): −2.906 and −3.664 and −1.356; Emax [3]: 100%; −log10Slope ([3]; cAMP accumulation, fitted curve slope, replicate plates, listed as R1-101): −4.492 and −4.864 and −4.046
AVAEIQLMHQRAKWAIQEIGIKITRELLERYL [Peptide R2-42]			13.11	0.285	β-arrestin2 assay activity compared to control peptide [1]: activity similar to the control peptide; β2-arrestin [1]: +; −log10Slope ([1]; β-arrestin2 recruitment): −2.7849 and −2.122 and −2.912; EC50 [1, 4]: 0.00807 µM and 0.00422 µM and 0.0237 µM; −log10Slope ([2]; β-arrestin1 recruitment): −1.503 and −1.149 and −5.574
AVAEIQLMHQRAKWDLLIELVKLLHELLKEYI [Peptide R2-40]	increased activity as compared to the control peptide	++	−2.205	5.83e-06	−log10Slope ([1]; β-arrestin2 recruitment): −3.733 and −2.83; EC50 [1, 4]: 0.856 µM and 1.41 µM; −log10Slope ([2]; β-arrestin1 recruitment): −4.125 and −1.577; EC50 [2, 7]: 0.571 µM and 3.6 µM
AVAEIQLMHQRAKWDVLIELAKLLAELLRRYH [Peptide R2-47]	increased activity as compared to the control peptide	++	12		−log10Slope ([1]; β-arrestin2 recruitment): −2.078 and −1.716 and −1.634; EC50 ([1]; −log10EC50, β-arrestin2 recruitment): 1.37 µM and 1.71 µM and 3.48 µM; −log10Slope ([2]; β-arrestin1 recruitment): −1.834 and −2.2235 and −1.644; EC50 ([2]; −log10EC50, β-arrestin1 recruitment): 1.43 µM and 0.651 µM and 3.64 µM; EC50 [3]: 0.000591 µM
AVAEIQLMHQRAKWEIQEIGIKITLDLLQTLK [Peptide R2-41]	increased activity as compared to the control peptide	++	−2.911	5.57e-05	−log10Slope ([1]; β-arrestin2 recruitment): −4.333; EC50 [1, 4]: 0.94 µM; −log10Slope ([2]; β-arrestin1 recruitment): −8.214; EC50 [2, 7]: 0.00383 µM
AVAEIQLMHQRAKWEIQEIGIKITLELLKEYI [Peptide R2-37]	increased activity as compared to the control peptide		−5.899	0.000813	−log10Slope ([1]; β-arrestin2 recruitment): −4.144 and −2.117 and −4.372; EC50 [1, 4]: 0.386 µM and 1.38 µM and 0.497 µM; −log10Slope ([2]; β-arrestin1 recruitment): −1.386 and −0.8678 and −5.353
AVAEIQLMHQRAKWELQEIGIKITLDLLEAYL [Peptide R2-39]					−log10Slope ([1]; β-arrestin2 recruitment): −5.314 and −3.58 and −2.2339; −log10Slope ([2]; β-arrestin1 recruitment): −0.2801 and −4.065 and −4.878; EC50 [2, 7]: 0.775 µM and 0.594 µM
AVAEIQLMHQRAKWKQELELEEKNKKILEDVY [Peptide R2-32]			−14.3219	0.312	
AVAEIQLMHQRAKWRAEYELREMLLRLLEEIF [Peptide R1-96]	activity similar to the control peptide	+			Emax [3]: 99.7%; EC50 [3, 8]: 0.00986 µM; −log10Slope [3, 9]: −3.352
AVAEIQLMHQRAKWSILEELLKILTALLDEYI [Peptide R2-46]					−log10Slope ([1]; β-arrestin2 recruitment): −3.413 and −1.882 and −2.306; EC50 [1, 4]: 0.539 µM and 0.187 µM and 0.55 µM; −log10Slope ([2]; β-arrestin1 recruitment): −3.506 and −2.782 and −5.541; EC50 [2, 7]: 0.565 µM and 0.447 µM and 0.394 µM
AVATIQLMTDIAKIRAEYELREMLLRLLEEIF [Peptide R2-6]			−0.3341		
GIAVFTIMHLRIYLRAEYELREMLLRLLEEIF [Peptide R2-17]			−2.077	448	
GIAVITIMIDYAKLRAEYELREMLLRLLEEIF [Peptide R2-22]	increased activity as compared to the control peptide	++	7.165		EC50 [3]: 7.09e-05 µM
GIAVLTILDLRAKLRAEYELREMLLRLLEEIF [Peptide R2-14]	increased activity as compared to the control peptide	++	2.196		EC50 [3]: 5.21e-06 µM
GLAALTIGLLRAKLRAEYELREMLLRLLEEIF [Peptide R2-24]	increased activity as compared to the control peptide	++	5.587		EC50 [3]: 4.24e-05 µM
GVAEIQLMHDIPVIRAEYELREMLLRLLEEIF [Peptide R2-3]			−8.5715	11.8	
GVAEIQLMVDLDIIRAEYELREMLLRLLEEIF [Peptide R2-12]			−2.726	137	
GVAELQLMHDLAKIKLELELKVKLLEILKDVY [Peptide R2-49]					Emax [3]: 99.9%; EC50 [3, 8]: 1.62 µM; −log10Slope [3, 9]: −5.638
GVAELQLMHFRALLRAEYELREMLLRLLEEIF [Peptide R2-7]			−0.9597	26100	
GVALLQIVHDFAKIRAEYELREMLLRLLEEIF [Peptide R2-5]			−4.972		
GVAMLQILHDKAKVRAEYELREMLLRLLEEIF [Peptide R2-11]			−11.3552		EC50 [3]: 2.01 µM
GVSMLQIMHDLAVIRAEYELREMLLRLLEEIF [Peptide R2-4]			−13.5432	1.36	
GVVMLQFMHDVAKIRAEYELREMLLRLLEEIF [Peptide R2-9]			−0.02713		
GVYAIQAMHDLAKIRAEYELREMLLRLLEEIF [Peptide R2-10]			−8.781	32.5	
LILVEQLMDLRAYLRAEYELREMLLRLLEEIF [Peptide R2-16]			−8.301	19.6	
LILVKKIIDLRAYLRAEYELREMLLRLLEEIF [Peptide R2-21]			−8.121	21.2	
LMHNLGKHLNSMERVEWLRKKLQDVHNFVA [PTH 7-36 antago, reference compound]					−log10Slope ([1]; β-arrestin2 recruitment): −2.649; EC50 [1, 4]: 0.0469 µM; −log10Slope ([2]; β-arrestin1 recruitment): −1.192; EC50 [2, 7]: 0.105 µM
PIPVKDIMDLRAYLRAEYELREMLLRLLEEIF [Peptide R2-19]			−5.2427	20.5	
SIIGEQLMLLRALLRAEYELREMLLRLLEEIF [Peptide R2-18]			−1.186	5940	
VDFEIQLMQQRAQWIADYRIREFLDKLIAEIF [Peptide R1-94]	increased activity as compared to the control peptide	++			Emax [3]: 90.8%; EC50 [3, 8]: 7.36e-05 µM; −log10Slope [3, 9]: −3.981
